According to ChEMBL document CHEMBL5030552, “Computational Design of Potent D-Peptide Inhibitors of SARS-CoV-2” (J Med Chem, 2021):

How the values were obtained:
SARS-CoV-2 [1] = test: Antiviral activity against SARS-CoV-2 B.1.1.7 variant assessed as neutralization viral infection in Vero cells by measuring cytopathic effect incubated for 4 days by crystal violet staining based assay; type: functional, organism-based; conditions: Severe acute respiratory syndrome coronavirus 2, B.1.1.7, Vero, 96 h
SARS-CoV-2 [2] = test: Antiviral activity against SARS-CoV-2 B.1.351 variant assessed as neutralization viral infection in Vero cells by measuring cytopathic effect incubated for 4 days by crystal violet staining based assay; type: functional, organism-based; conditions: Severe acute respiratory syndrome coronavirus 2, B.1.351, Vero, 96 h

Structure (SMILES) | IC50 (SARS-CoV-2 [1]) [µM] | IC50 (SARS-CoV-2 [2]) [µM]
CC[C@@H](C)[C@@H](NC(=O)[C@@H](Cc1cnc[nH]1)NC(=O)[C@H](NC(=O)[C@@H](CCC(=O)O)NC(=O)[C@@H](CCC(=O)O)NC(=O)[C@@H](CCSC)NC(=O)[C@@H](CC(C)C)NC(=O)[C@@H](C)NC(=O)[C@@H](Cc1ccc(O)cc1)NC(=O)[C@@H](CC(C)C)NC(=O)[C@@H](C)NC(=O)[C@H](NC(=O)[C@@H](CCC(N)=O)NC(=O)[C@H](N)CC(C)C)[C@H](C)O)[C@H](C)CC)C(=O)N[C@H](C)C(=O)N[C@H](C)C(=O)N[C@H](CC(C)C)C(=O)N[C@H](CCC(=O)O)C(=O)N[C@H](CCCCN)C(=O)N[C@@H](C(=O)N[C@H](Cc1c[nH]c2ccccc12)C(=O)N[C@@H](C(=O)N[C@H](C)C(=O)N[C@H](CC(C)C)C(=O)N[C@H](CCCNC(=N)N)C(=O)N[C@H](Cc1cnc[nH]1)C(=O)N[C@H](CCC(N)=O)C(=O)N[C@H](Cc1ccc(O)cc1)C(=O)N[C@@H](C(=O)O)[C@H](C)O)[C@H](C)O)[C@H](C)O | 5.57 | 7.37
CC[C@@H](C)[C@@H](NC(=O)CNC(=O)[C@@H](CC(C)C)NC(=O)CNC(=O)[C@@H](CCCCN)NC(=O)CNC(=O)[C@@H](CC(=O)O)NC(=O)[C@@H](Cc1ccccc1)NC(=O)[C@H](N)CCCNC(=N)N)C(=O)N[C@H](Cc1ccc(O)cc1)C(=O)N[C@H](CCC(N)=O)C(=O)N[C@H](Cc1ccc(O)cc1)C(=O)N[C@H](CCSC)C(=O)N[C@H](CCC(=O)O)C(=O)N[C@H](CCC(=O)O)C(=O)N[C@@H](C(=O)N[C@H](CCC(=O)O)C(=O)N[C@H](Cc1cnc[nH]1)C(=O)N[C@H](C)C(=O)N[C@H](C)C(=O)N[C@H](CO)C(=O)N[C@H](CCCNC(=N)N)C(=O)N[C@H](Cc1ccccc1)C(=O)N[C@H](C)C(=O)N[C@H](Cc1ccc(O)cc1)C(=O)N[C@H](Cc1ccccc1)C(=O)N[C@H](Cc1ccccc1)C(=O)N[C@H](Cc1ccc(O)cc1)C(=O)N[C@H](CCC(N)=O)C(=O)N[C@H](Cc1cnc[nH]1)C(=O)N[C@H](CC(C)C)C(=O)N[C@H](C)C(=O)O)[C@H](C)CC | 33.4 | 11.1
